biological target: T1, Tyrosinase (Agaricus bisporus, UniProt O42713); experiment: Inhibition of mushroom tyrosinase activity using L-tyrosin as substrate after 20 mins; settings: not given
T1 sequence (O42713 whole entry): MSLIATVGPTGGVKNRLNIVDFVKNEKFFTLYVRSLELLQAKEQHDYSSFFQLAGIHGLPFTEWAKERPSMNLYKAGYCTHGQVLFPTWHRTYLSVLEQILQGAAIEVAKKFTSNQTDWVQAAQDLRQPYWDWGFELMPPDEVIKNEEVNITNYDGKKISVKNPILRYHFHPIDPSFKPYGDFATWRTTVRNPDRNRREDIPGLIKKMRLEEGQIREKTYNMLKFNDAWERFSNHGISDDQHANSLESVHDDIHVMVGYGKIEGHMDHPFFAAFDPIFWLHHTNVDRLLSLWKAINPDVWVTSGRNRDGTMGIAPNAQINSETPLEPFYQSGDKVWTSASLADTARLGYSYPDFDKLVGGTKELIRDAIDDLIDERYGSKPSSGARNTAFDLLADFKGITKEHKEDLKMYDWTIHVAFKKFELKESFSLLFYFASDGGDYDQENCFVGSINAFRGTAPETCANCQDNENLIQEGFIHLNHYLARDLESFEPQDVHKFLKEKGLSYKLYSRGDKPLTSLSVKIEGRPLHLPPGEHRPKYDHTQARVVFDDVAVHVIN

Row | SMILES | IC50 [µM]
1 | Cc1c(C)c2c(c(C)c1O)CCC(C)(C(=O)O)O2 (stereo unspecified) [TROLOX] | > 200
2 | O=C(OCc1cc(=O)c(O)co1)c1ccc2cc(O)ccc2c1 | 9.65
3 | O=C(OCc1cc(=O)c(O)co1)c1ccc(O)cc1 | 5.51

Next, values leading:

Row | IC50 [µM] | SMILES
4 | 5.36 | Cc1c(C)c2c(c(C)c1O)CCC(C)(C(=O)OCc1cc(=O)c(O)co1)O2 (racemic)
5 | > 200 | COc1coc(COC(=O)C2(C)CCc3c(C)c(O)c(C)c(C)c3O2)cc1=O (stereo unspecified)

test system: not listed separately; experiment: Ratio of kojic acid IC50 to compound IC50 for depigmentation activity in mouse Melan-a cells assessed as inhibition of melanin formation after 4 days; format: functional; settings: not given

Row | SMILES | Ratio IC50
6 | Cc1c(C)c2c(c(C)c1O)CCC(C)(C(=O)OCc1cc(=O)c(O)co1)O2 (racemic) | 90

test system: Radical scavenging activity; experiment: not given; settings: not given

Row | SMILES | IC50 [µM]
7 | Cc1c(C)c2c(c(C)c1O)CCC(C)(C(=O)O)O2 (stereo unspecified) [TROLOX] | 10.1
8 | O=C(OCc1cc(=O)c(O)co1)c1ccc2cc(O)ccc2c1 | > 200
9 | O=C(OCc1cc(=O)c(O)co1)c1ccc(O)cc1 | > 200

Further lines, results first:

Row | IC50 [µM] | SMILES
10 | 11.6 | Cc1c(C)c2c(c(C)c1O)CCC(C)(C(=O)OCc1cc(=O)c(O)co1)O2 (racemic)
11 | 19.8 | COc1coc(COC(=O)C2(C)CCc3c(C)c(O)c(C)c(C)c3O2)cc1=O (stereo unspecified)

test system: not listed separately; experiment: cells; settings: Mus musculus, Melan-a, 96 h
Description: Depigmentation activity in mouse Melan-a cells assessed as inhibition of melanin formation after 4 days

Row | SMILES | IC50 [µM]
12 | Cc1c(C)c2c(c(C)c1O)CCC(C)(C(=O)O)O2 (stereo unspecified) [TROLOX] | > 300
13 | O=C(OCc1cc(=O)c(O)co1)c1ccc2cc(O)ccc2c1 | > 200
14 | O=C(OCc1cc(=O)c(O)co1)c1ccc(O)cc1 | > 200

Second part, the compound after the results:

Row | IC50 [µM] | SMILES
15 | 17.7 | Cc1c(C)c2c(c(C)c1O)CCC(C)(C(=O)OCc1cc(=O)c(O)co1)O2 (racemic)
16 | > 200 | COc1coc(COC(=O)C2(C)CCc3c(C)c(O)c(C)c(C)c3O2)cc1=O (stereo unspecified)

test system: not listed separately; experiment: cells; settings: Mus musculus, Melan-a
Description: Cytotoxicity against mouse Melan-a cells by modified crystal voilet assay

Row | SMILES | IC50 [µM]
17 | Cc1c(C)c2c(c(C)c1O)CCC(C)(C(=O)O)O2 (stereo unspecified) [TROLOX] | 300
18 | O=C(OCc1cc(=O)c(O)co1)c1ccc2cc(O)ccc2c1 | > 200
19 | O=C(OCc1cc(=O)c(O)co1)c1ccc(O)cc1 | > 200

Next, values leading:

Row | IC50 [µM] | SMILES
20 | 56.5 | Cc1c(C)c2c(c(C)c1O)CCC(C)(C(=O)OCc1cc(=O)c(O)co1)O2 (racemic)
21 | > 200 | COc1coc(COC(=O)C2(C)CCc3c(C)c(O)c(C)c(C)c3O2)cc1=O (stereo unspecified)
